Experimental data: US20240138411A1, “METHOD OF […] OF SUGARCANE” (CORTEVA AGRISCIENCE LLC, priority 2021, published 2024)
Entries after “also recorded” stand apart in the source; their conditions may differ.

Tested on: sugarcane
Experiment: Sugarcane flowering inhibition field trials, floral induction rated on UFSCar scale
Type: in vivo
Method: In order to explore the activity of florpyrauxifen as flowering inhibitor in sugarcane, field studies were carried out. Florpyrauxifen-benzyl was tested at rates from 2 to 20 grams active ingredient per hectare (g ai/ha) and compared to Ethrel® 720 (Bayer), the standard treatment. The flowering inhibition effect was assessed by checking the floral induction in sugarcane through the percentage scale recommended by UFSCar (Federal University of Sao Carlos, Sao Paulo, Brazil).
Four trials were carried out in sugarcane where florpyrauxifen-benzyl (Rinskor®), applied at a rate of 2 to 20 g ai/ha, was compared to ethephon (Ethrel® 720) applied at a rate of 475 g ai/ha. Control plots of untreated sugarcane were also evaluated. Rinskor® and Ethrel® 720 were diluted in water and a single application for each study (backpack sprayer) was performed delivering 50 L of spray solution per ha at the reproductive stage of sugarcane and at a maximum 150 days before harvest. The activity of florpyrauxifen-benzyl as a flowering inhibitor was measured via assessments (Scale of flowering inhibition—see chart 1) performed at 0, 14, 30, 45, 60, 75, 90, 120, 150 days after application, or up to harvest time. The assessments were measured in sugarcane stems, rating the flowering induction according to the UFSCar scale shown below. Significance of treatment effect was evaluated with F-approximate test (α=0.1) and least square means from different treatments were compared with Tukey's test.

COc1c(Cl)ccc(-c2nc(C(=O)OCc3ccccc3)c(Cl)c(N)c2F)c1F [Rinskor, florpyrauxifen-benzyl]
Frequency 1/1 (0%) (Table 3, 120 DAA, 10 g ai/ha): 72.5% | Frequency 2/1 (15%) (Table 3, 120 DAA, 10 g ai/ha): 27.5% | Frequency 3/1 (30%) (Table 3, 120 DAA, 10 g ai/ha): 0.0% | Frequency 4/1 (50%) (Table 3, 120 DAA, 10 g ai/ha): 0.0% | Frequency 4/2 (80%) (Table 3, 120 DAA, 10 g ai/ha): 0.0% | Frequency 4/3 (90%) (Table 3, 120 DAA, 10 g ai/ha): 0.0% | Frequency 4/4 (100%) (Table 3, 120 DAA, 10 g ai/ha): 0.0% | % Referring to Scale (Table 3, 120 DAA, 15 g ai/ha): 2.6% | Frequency 1/1 (0%) (Table 3, 120 DAA, 15 g ai/ha): 85.0% | Frequency 2/1 (15%) (Table 3, 120 DAA, 15 g ai/ha): 12.5% | Frequency 3/1 (30%) (Table 3, 120 DAA, 15 g ai/ha): 2.5% | Frequency 4/1 (50%) (Table 3, 120 DAA, 15 g ai/ha): 0.0% | Frequency 4/2 (80%) (Table 3, 120 DAA, 15 g ai/ha): 0.0% | Frequency 4/3 (90%) (Table 3, 120 DAA, 15 g ai/ha): 0.0% | Frequency 4/4 (100%) (Table 3, 120 DAA, 15 g ai/ha): 0.0% | % Referring to Scale (Table 3, 120 DAA, 20 g ai/ha): 3.0% | Frequency 1/1 (0%) (Table 3, 120 DAA, 20 g ai/ha): 80.0% | Frequency 2/1 (15%) (Table 3, 120 DAA, 20 g ai/ha): 20.0% | Frequency 3/1 (30%) (Table 3, 120 DAA, 20 g ai/ha): 0.0% | Frequency 4/1 (50%) (Table 3, 120 DAA, 20 g ai/ha): 0.0% | Frequency 4/2 (80%) (Table 3, 120 DAA, 20 g ai/ha): 0.0% | Frequency 4/3 (90%) (Table 3, 120 DAA, 20 g ai/ha): 0.0% | Frequency 4/4 (100%) (Table 3, 120 DAA, 20 g ai/ha): 0.0% | % Referring to Scale (Table 3, 150 DAA, 2 g ai/ha): 3.0% | Frequency 1/1 (0%) (Table 3, 150 DAA, 2 g ai/ha): 80.0% | Frequency 2/1 (15%) (Table 3, 150 DAA, 2 g ai/ha): 20.0% | Frequency 3/1 (30%) (Table 3, 150 DAA, 2 g ai/ha): 0.0% | Frequency 4/1 (50%) (Table 3, 150 DAA, 2 g ai/ha): 0.0% | Frequency 4/2 (80%) (Table 3, 150 DAA, 2 g ai/ha): 0.0% | Frequency 4/3 (90%) (Table 3, 150 DAA, 2 g ai/ha): 0.0% | Frequency 4/4 (100%) (Table 3, 150 DAA, 2 g ai/ha): 0.0% | % Referring to Scale (Table 3, 150 DAA, 5 g ai/ha): 1.9% | Frequency 1/1 (0%) (Table 3, 150 DAA, 5 g ai/ha): 87.5% | Frequency 2/1 (15%) (Table 3, 150 DAA, 5 g ai/ha): 12.5% | Frequency 3/1 (30%) (Table 3, 150 DAA, 5 g ai/ha): 0.0% | Frequency 4/1 (50%) (Table 3, 150 DAA, 5 g ai/ha): 0.0% | Frequency 4/2 (80%) (Table 3, 150 DAA, 5 g ai/ha): 0.0% | Frequency 4/3 (90%) (Table 3, 150 DAA, 5 g ai/ha): 0.0% | Frequency 4/4 (100%) (Table 3, 150 DAA, 5 g ai/ha): 0.0% | % Referring to Scale (Table 3, 150 DAA, 7 g ai/ha): 3.0% | Frequency 1/1 (0%) (Table 3, 150 DAA, 7 g ai/ha): 80.0% | Frequency 2/1 (15%) (Table 3, 150 DAA, 7 g ai/ha): 20.0% | Frequency 3/1 (30%) (Table 3, 150 DAA, 7 g ai/ha): 0.0% | Frequency 4/1 (50%) (Table 3, 150 DAA, 7 g ai/ha): 0.0% | Frequency 4/2 (80%) (Table 3, 150 DAA, 7 g ai/ha): 0.0% | Frequency 4/3 (90%) (Table 3, 150 DAA, 7 g ai/ha): 0.0% | Frequency 4/4 (100%) (Table 3, 150 DAA, 7 g ai/ha): 0.0% | % Referring to Scale (Table 3, 150 DAA, 10 g ai/ha): 0.8% | Frequency 1/1 (0%) (Table 3, 150 DAA, 10 g ai/ha): 95.0% | Frequency 2/1 (15%) (Table 3, 150 DAA, 10 g ai/ha): 5.0% | Frequency 3/1 (30%) (Table 3, 150 DAA, 10 g ai/ha): 0.0% | Frequency 4/1 (50%) (Table 3, 150 DAA, 10 g ai/ha): 0.0% | Frequency 4/2 (80%) (Table 3, 150 DAA, 10 g ai/ha): 0.0% | Frequency 4/3 (90%) (Table 3, 150 DAA, 10 g ai/ha): 0.0% | Frequency 4/4 (100%) (Table 3, 150 DAA, 10 g ai/ha): 0.0% | % Referring to Scale (Table 3, 150 DAA, 15 g ai/ha): 1.9% | Frequency 1/1 (0%) (Table 3, 150 DAA, 15 g ai/ha): 87.5% | Frequency 2/1 (15%) (Table 3, 150 DAA, 15 g ai/ha): 12.5% | Frequency 3/1 (30%) (Table 3, 150 DAA, 15 g ai/ha): 0.0% | Frequency 4/1 (50%) (Table 3, 150 DAA, 15 g ai/ha): 0.0% | Frequency 4/2 (80%) (Table 3, 150 DAA, 15 g ai/ha): 0.0% | Frequency 4/3 (90%) (Table 3, 150 DAA, 15 g ai/ha): 0.0% | Frequency 4/4 (100%) (Table 3, 150 DAA, 15 g ai/ha): 0.0% | % Referring to Scale (Table 3, 150 DAA, 20 g ai/ha): 0.0% | Frequency 1/1 (0%) (Table 3, 150 DAA, 20 g ai/ha): 100.0% | Frequency 2/1 (15%) (Table 3, 150 DAA, 20 g ai/ha): 0.0% | Frequency 3/1 (30%) (Table 3, 150 DAA, 20 g ai/ha): 0.0% | Frequency 4/1 (50%) (Table 3, 150 DAA, 20 g ai/ha): 0.0% | Frequency 4/2 (80%) (Table 3, 150 DAA, 20 g ai/ha): 0.0% | Frequency 4/3 (90%) (Table 3, 150 DAA, 20 g ai/ha): 0.0% | Frequency 4/4 (100%) (Table 3, 150 DAA, 20 g ai/ha): 0.0% | % Referring to Scale (Table 4, 90 DAA, 2 g ai/ha): 5.6% | Frequency 1/1 (0%) (Table 4, 90 DAA, 2 g ai/ha): 65.0% | Frequency 2/1 (15%) (Table 4, 90 DAA, 2 g ai/ha): 35.0% | Frequency 3/1 (30%) (Table 4, 90 DAA, 2 g ai/ha): 0.0% | Frequency 4/1 (50%) (Table 4, 90 DAA, 2 g ai/ha): 0.0% | Frequency 4/2 (80%) (Table 4, 90 DAA, 2 g ai/ha): 0.0% | Frequency 4/3 (90%) (Table 4, 90 DAA, 2 g ai/ha): 0.0% | Frequency 4/4 (100%) (Table 4, 90 DAA, 2 g ai/ha): 0.0% | % Referring to Scale (Table 4, 90 DAA, 4 g ai/ha): 1.1% | Frequency 1/1 (0%) (Table 4, 90 DAA, 4 g ai/ha): 87.5% | Frequency 2/1 (15%) (Table 4, 90 DAA, 4 g ai/ha): 12.5% | Frequency 3/1 (30%) (Table 4, 90 DAA, 4 g ai/ha): 0.0% | Frequency 4/1 (50%) (Table 4, 90 DAA, 4 g ai/ha): 0.0% | Frequency 4/2 (80%) (Table 4, 90 DAA, 4 g ai/ha): 0.0% | Frequency 4/3 (90%) (Table 4, 90 DAA, 4 g ai/ha): 0.0% | Frequency 4/4 (100%) (Table 4, 90 DAA, 4 g ai/ha): 0.0% | % Referring to Scale (Table 4, 90 DAA, 10 g ai/ha): 6.0% | Frequency 1/1 (0%) (Table 4, 90 DAA, 10 g ai/ha): 60.0% | Frequency 2/1 (15%) (Table 4, 90 DAA, 10 g ai/ha): 40.0% | Frequency 3/1 (30%) (Table 4, 90 DAA, 10 g ai/ha): 0.0% | Frequency 4/1 (50%) (Table 4, 90 DAA, 10 g ai/ha): 0.0% | Frequency 4/2 (80%) (Table 4, 90 DAA, 10 g ai/ha): 0.0% | Frequency 4/3 (90%) (Table 4, 90 DAA, 10 g ai/ha): 0.0% | Frequency 4/4 (100%) (Table 4, 90 DAA, 10 g ai/ha): 0.0% | % Referring to Scale (Table 4, 90 DAA, 15 g ai/ha): 2.6% | Frequency 1/1 (0%) (Table 4, 90 DAA, 15 g ai/ha): 82.5% | Frequency 2/1 (15%) (Table 4, 90 DAA, 15 g ai/ha): 17.5% | Frequency 3/1 (30%) (Table 4, 90 DAA, 15 g ai/ha): 0.0% | Frequency 4/1 (50%) (Table 4, 90 DAA, 15 g ai/ha): 0.0% | Frequency 4/2 (80%) (Table 4, 90 DAA, 15 g ai/ha): 0.0% | Frequency 4/3 (90%) (Table 4, 90 DAA, 15 g ai/ha): 0.0% | Frequency 4/4 (100%) (Table 4, 90 DAA, 15 g ai/ha): 0.0% | % Referring to Scale (Table 4, 90 DAA, 20 g ai/ha): 3.0% | Frequency 1/1 (0%) (Table 4, 90 DAA, 20 g ai/ha): 80.0% | Frequency 2/1 (15%) (Table 4, 90 DAA, 20 g ai/ha): 20.0% | Frequency 3/1 (30%) (Table 4, 90 DAA, 20 g ai/ha): 0.0% | Frequency 4/1 (50%) (Table 4, 90 DAA, 20 g ai/ha): 0.0% | Frequency 4/2 (80%) (Table 4, 90 DAA, 20 g ai/ha): 0.0% | Frequency 4/3 (90%) (Table 4, 90 DAA, 20 g ai/ha): 0.0% | Frequency 4/4 (100%) (Table 4, 90 DAA, 20 g ai/ha): 0.0% | flowering inhibition performance versus the standard (Ethrel 720) (Tables 1-4, 60 to 150 days after application): as well as or better than the standard treatment; also recorded: equivalent to or better than the standard | sugarcane flowering inhibition (field studies, rates from 2 to 20 g ai/ha): excellent sugarcane flowering inhibitor
